pIC50: −log10 of the molar value. In brackets after ≈: the same amount, converted by molar mass. Residues, ends and D or L forms follow the SMILES beside them. *: point of attachment. Cbz = O=C(OCc1ccccc1)*
Experiments:
[1] = Inhibition of Staphylococcus aureus methionine aminopeptidase
[2] = Intrinsic clearance in rat liver microsomes; format: ADME; settings: read-out: CLH
[3] = Inhibition of Streptococcus pneumoniae methionine aminopeptidase
[4] = Inhibition of Escherichia coli methionine aminopeptidase
[5] = Lipophilicity, log D of the compound; format: physicochemical; settings: octanol/water
[6] = Inhibition of Haemophilus influenzae methionine aminopeptidase
[7] = Solubility of the compound; format: physicochemical
[8] = Unbound fraction in plasma (unknown origin); format: ADME, cell-free

Row | SMILES | pIC50 [1] | microsomal CLint [2] | pIC50 [3] | pIC50 [4] | logD [5] | pIC50 [6] | solubility [7] | fraction unbound [8]
1 | C[C@H](NC(=O)OCc1ccccc1)C(=O)N[C@H]1CC=C[C@@H](c2ccccc2)N(C)C1=O | – | – | < 3.70 | < 3.70 | – | < 3.70 | – | –
2 | CN1C(=O)[C@@H](NC(=O)C(C)(C)NC(=O)OCc2ccccc2)CC=C[C@@H]1c1ccccc1 | – | – | < 3.70 | < 3.70 | – | < 3.70 | – | –
3 | C[C@@H](C(=O)N[C@H]1CC=C[C@H](c2ccccc2)N(C)C1=O)N(C)C(=O)OCc1ccccc1 | – | – | < 3.70 | < 3.70 | – | < 3.70 | – | –
4 | CC(C)[C@H](NC(=O)OCc1ccccc1)C(=O)N[C@H]1CC=C[C@H](c2ccccc2)N(C)C1=O | – | – | < 3.70 | < 3.70 | – | < 3.70 | – | –
5 | C[C@H](N)C(=O)N[C@@H](C)C(=O)N[C@H]1CC=C[C@H](C2CCCCC2)N(C)C1=O | – | – | < 3.70 | < 3.70 | – | < 3.70 | – | –
6 | C[C@H](NC(=O)[C@H](C)NC(=O)OCc1ccccc1)C(N)=O (Cbz-Ala-Ala-NH2) | – | – | < 3.70 | < 3.70 | – | < 3.70 | – | –

The next lines start with the values.

Row | pIC50 [1] | microsomal CLint [2] | pIC50 [3] | pIC50 [4] | logD [5] | pIC50 [6] | solubility [7] | fraction unbound [8] | SMILES
7 | < 3.70 | 339 µL/min/mg | 4.34 | 4.52 | 2.6 | 4.22 | 450 µM (≈ 199 µg/mL) | 0.051 | C[C@H](NC(=O)Cc1cc(F)cc(F)c1)C(=O)N[C@H]1CC=C[C@H](c2ccccc2)N(C)C1=O
8 | – | 720 µL/min/mg | 5.13 | 5.09 | 1.65 | 4.95 | 341 µM (≈ 144 µg/mL) | 0.027 | C[C@H](NC(=O)OCc1ccccc1)C(=O)N[C@H]1CC=C[C@H](c2ccccc2)N(C)C1=O
9 | – | – | < 3.70 | < 3.70 | – | < 3.70 | – | – | CC(=O)N[C@@H](C)C(=O)N[C@H]1CC=C[C@H](c2ccccc2)N(C)C1=O
10 | – | – | 4.15 | 3.99 | – | 3.88 | – | – | CN1C(=O)[C@@H](NC(=O)[C@H](CO)NC(=O)OCc2ccccc2)CC=C[C@@H]1c1ccccc1
11 | – | 93.5 µL/min/mg | 6.92 | 5.85 | 1.98 | 5.17 | > 1000 µM | 0.108 | C[C@H](NC(=O)[C@@H](N)c1ccccc1)C(=O)N[C@H]1CC=C[C@H](C2CCCCC2)N(C)C1=O
12 | – | – | 5.40 | 5.10 | – | 4.81 | – | – | C[C@H](NC(=O)[C@H](N)c1ccccc1)C(=O)N[C@H]1CC=C[C@H](C2CCCCC2)N(C)C1=O
13 | – | 689 µL/min/mg | 5.01 | 5.66 | 2.2 | 5.33 | > 1000 µM | 0.109 | C[C@H](NC(=O)[C@@H](N)Cc1ccccc1)C(=O)N[C@H]1CC=C[C@H](C2CCCCC2)N(C)C1=O
14 | – | 159 µL/min/mg | 6.52 | 6.10 | 2.69 | 5.96 | 888 µM (≈ 409 µg/mL) | 0.016 | C[C@H](NC(=O)[C@@H](N)c1cccc(Cl)c1)C(=O)N[C@H]1CC=C[C@H](C2CCCCC2)N(C)C1=O

— ChEMBL document CHEMBL3600368, “Novel broad-spectrum inhibitors of bacterial methionine aminopeptidase” (Bioorg Med Chem Lett, 2015)
